In publication doi:10.1101/265348v4, “Transcriptional Activation of Elephant Shark Mineralocorticoid Receptor by Corticosteroids, Progesterone and Spironolactone” (biorxiv, 2018):

Tests used:
Test in all cases: cell-based
Conditions in all cases: HEK293; relative to aldosterone = 100%; read-out: % relative to Aldo
[1] = molecular target: T1, full-length elephant shark MR (Callorhinchus milii, UniProt A0A4W3I5J5); design: transcriptional activation of full-length MR, MMTV-luciferase reporter, concentration-response
T1 construct: gene nr3c2; full coding region in pcDNA3.1, expressed in HEK293 cells
T1 sequence (A0A4W3I5J5 1-956): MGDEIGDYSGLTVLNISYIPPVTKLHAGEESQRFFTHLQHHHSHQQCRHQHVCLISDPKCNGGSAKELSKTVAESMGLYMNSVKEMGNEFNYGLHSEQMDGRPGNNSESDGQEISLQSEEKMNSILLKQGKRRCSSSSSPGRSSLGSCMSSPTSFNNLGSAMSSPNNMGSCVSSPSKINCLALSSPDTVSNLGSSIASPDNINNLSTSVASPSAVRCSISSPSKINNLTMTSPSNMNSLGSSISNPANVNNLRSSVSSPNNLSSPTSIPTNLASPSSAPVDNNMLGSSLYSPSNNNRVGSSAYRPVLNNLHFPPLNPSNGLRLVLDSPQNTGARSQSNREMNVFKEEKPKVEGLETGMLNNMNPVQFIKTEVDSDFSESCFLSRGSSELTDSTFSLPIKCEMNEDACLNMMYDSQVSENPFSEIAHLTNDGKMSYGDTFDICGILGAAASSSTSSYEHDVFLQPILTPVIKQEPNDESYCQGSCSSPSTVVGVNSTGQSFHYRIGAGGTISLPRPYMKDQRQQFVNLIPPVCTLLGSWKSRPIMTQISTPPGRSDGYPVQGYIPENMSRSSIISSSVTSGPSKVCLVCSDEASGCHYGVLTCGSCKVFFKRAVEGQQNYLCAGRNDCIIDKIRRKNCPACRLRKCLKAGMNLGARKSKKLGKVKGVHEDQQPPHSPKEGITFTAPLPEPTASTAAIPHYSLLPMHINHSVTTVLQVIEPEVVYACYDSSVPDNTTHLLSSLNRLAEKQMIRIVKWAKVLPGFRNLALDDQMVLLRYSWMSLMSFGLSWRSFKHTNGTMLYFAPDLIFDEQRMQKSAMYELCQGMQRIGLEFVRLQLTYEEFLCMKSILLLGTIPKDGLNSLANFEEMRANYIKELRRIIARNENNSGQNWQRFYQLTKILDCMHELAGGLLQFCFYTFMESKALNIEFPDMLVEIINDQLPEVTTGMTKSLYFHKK
Excerpt: (§1) Figure 3. Transcriptional activation of elephant shark MR by 3-ketosteroids. Full length and truncated elephant shark MR were expressed in HEK293 cells with an MMTV-luciferase reporter. A. Full length elephant shark MR. […] (19NP), 17OH-Prog, Spiron or vehicle alone (DMSO). B. Truncated elephant shark MR. […] (19NP), 17OH-Prog or Spiron or vehicle alone (DMSO). Results are expressed as means ± SEM, n=3. Y-axis indicates fold-activation compared to the activity of control vector with vehicle (DMSO) alone as 1.  Figure 4. Concentration-dependent transcriptional activation of full-length and truncated elephant shark MR (shark MR) by 3-ketosteroids. Full length and truncated elephant shark MR (shark MR) were expressed in HEK293 cells with an MMTV-luciferase reporter. Full-length elephant shark MR (shark MR) (A) and (C) and truncated elephant shark MR (shark MR) (B) and (D). (A), (B) Aldo, cortisol, corticosterone, 11deoxycorticosterone or 11-deoxycortisol. (C), (D) Aldo, Prog, [compound left out] [compound left out], 17OH-Prog (17OH-P) or Spiron. […] Y-axis indicates fold-activation compared to the activity of control vector with vehicle (DMSO) alone as 1.  Figure 5. Concentration-dependent transcriptional activation of full-length and truncated chicken and zebrafish MR by progestins and Spironolactone. […] Full-length chicken MR (A) and zebrafish MR (B) and truncated chicken MR (C) and zebrafish MR (D). Y-axis indicates fold-activation compared to the activity of control vector with vehicle (DMSO) alone as 1.

[2] = molecular target: T2, truncated elephant shark MR (GAL4-DBD-MR-LBD) (Callorhinchus milii, UniProt A0A4W3I5J5); design: transcriptional activation of truncated GAL4-DBD-MR-LBD, luciferase reporter, concentration-response
T2 construct: gene nr3c2
T2 sequence (A0A4W3I5J5 658-956 limits assumed): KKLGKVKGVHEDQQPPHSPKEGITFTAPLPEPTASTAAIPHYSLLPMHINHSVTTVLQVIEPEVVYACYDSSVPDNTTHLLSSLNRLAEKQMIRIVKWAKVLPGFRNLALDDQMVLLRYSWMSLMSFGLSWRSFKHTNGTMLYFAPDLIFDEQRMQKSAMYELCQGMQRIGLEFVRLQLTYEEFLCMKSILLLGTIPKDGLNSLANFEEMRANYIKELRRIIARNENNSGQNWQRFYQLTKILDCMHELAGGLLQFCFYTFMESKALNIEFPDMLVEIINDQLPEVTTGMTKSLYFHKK
Excerpt: (§2) In parallel experiments, truncated elephant shark MR, lacking the A/B domain and containing a GAL4-DBD instead of the MR DBD, retained a strong response to all corticosteroids and to [compound left out] (Figure 3B). […] Concentration-dependent transcriptional activation of full-length and truncated elephant shark MR (shark MR) by 3-ketosteroids. Full length and truncated elephant shark MR (shark MR) were expressed in HEK293 cells with an MMTV-luciferase reporter. Full-length elephant shark MR (shark MR) (A) and (C) and truncated elephant shark MR (shark MR) (B) and (D). (A), (B) Aldo, cortisol, corticosterone, 11deoxycorticosterone or 11-deoxycortisol. (C), (D) Aldo, Prog, [compound left out] [compound left out], 17OH-Prog (17OH-P) or Spiron. […] Y-axis indicates fold-activation compared to the activity of control vector with vehicle (DMSO) alone as 1.  Figure 5. Concentration-dependent transcriptional activation of full-length and truncated chicken and zebrafish MR by progestins and Spironolactone. […] Full-length chicken MR (A) and zebrafish MR (B) and truncated chicken MR (C) and zebrafish MR (D). Y-axis indicates fold-activation compared to the activity of control vector with vehicle (DMSO) alone as 1.

full-length chicken MR = molecular target: T3, full-length chicken MR (Gallus gallus, UniProt C1KB84); design: transcriptional activation of full-length MR, MMTV-luciferase reporter, concentration-response
T3 construct: gene NR3C2; full-length, expressed in HEK293 cells
T3 sequence (C1KB84 1-986): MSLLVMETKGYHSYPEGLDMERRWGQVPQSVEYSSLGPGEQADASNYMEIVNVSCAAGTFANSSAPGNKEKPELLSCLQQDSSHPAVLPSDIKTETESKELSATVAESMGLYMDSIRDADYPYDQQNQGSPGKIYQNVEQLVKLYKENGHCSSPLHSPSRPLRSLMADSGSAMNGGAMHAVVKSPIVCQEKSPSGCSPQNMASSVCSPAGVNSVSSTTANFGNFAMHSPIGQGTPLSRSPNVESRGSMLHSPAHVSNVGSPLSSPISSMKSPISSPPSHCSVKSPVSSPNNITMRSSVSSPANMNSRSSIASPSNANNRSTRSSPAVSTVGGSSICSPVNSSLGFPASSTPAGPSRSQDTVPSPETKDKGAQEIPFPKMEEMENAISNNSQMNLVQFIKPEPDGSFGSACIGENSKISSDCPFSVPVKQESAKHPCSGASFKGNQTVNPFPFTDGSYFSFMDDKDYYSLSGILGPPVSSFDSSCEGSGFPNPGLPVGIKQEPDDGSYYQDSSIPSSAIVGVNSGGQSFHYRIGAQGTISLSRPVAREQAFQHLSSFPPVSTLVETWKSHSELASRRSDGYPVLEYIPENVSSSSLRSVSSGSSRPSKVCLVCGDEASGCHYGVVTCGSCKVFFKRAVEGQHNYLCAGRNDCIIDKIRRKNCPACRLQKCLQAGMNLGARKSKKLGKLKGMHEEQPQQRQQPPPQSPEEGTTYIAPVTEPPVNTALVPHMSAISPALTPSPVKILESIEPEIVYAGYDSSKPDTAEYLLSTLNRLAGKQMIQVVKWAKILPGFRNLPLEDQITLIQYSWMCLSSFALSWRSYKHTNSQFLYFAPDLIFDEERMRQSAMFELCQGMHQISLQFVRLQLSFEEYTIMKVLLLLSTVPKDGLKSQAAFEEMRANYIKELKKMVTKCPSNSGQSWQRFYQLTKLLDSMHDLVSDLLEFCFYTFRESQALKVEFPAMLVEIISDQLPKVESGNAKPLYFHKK
Excerpt: as §1

full-length zebrafish MR = molecular target: T4, full-length zebrafish MR (Danio rerio, UniProt A6YIH7); design: transcriptional activation of full-length MR, MMTV-luciferase reporter, concentration-response
T4 construct: gene nr3c2; full-length, expressed in HEK293 cells
T4 sequence (A6YIH7 1-970): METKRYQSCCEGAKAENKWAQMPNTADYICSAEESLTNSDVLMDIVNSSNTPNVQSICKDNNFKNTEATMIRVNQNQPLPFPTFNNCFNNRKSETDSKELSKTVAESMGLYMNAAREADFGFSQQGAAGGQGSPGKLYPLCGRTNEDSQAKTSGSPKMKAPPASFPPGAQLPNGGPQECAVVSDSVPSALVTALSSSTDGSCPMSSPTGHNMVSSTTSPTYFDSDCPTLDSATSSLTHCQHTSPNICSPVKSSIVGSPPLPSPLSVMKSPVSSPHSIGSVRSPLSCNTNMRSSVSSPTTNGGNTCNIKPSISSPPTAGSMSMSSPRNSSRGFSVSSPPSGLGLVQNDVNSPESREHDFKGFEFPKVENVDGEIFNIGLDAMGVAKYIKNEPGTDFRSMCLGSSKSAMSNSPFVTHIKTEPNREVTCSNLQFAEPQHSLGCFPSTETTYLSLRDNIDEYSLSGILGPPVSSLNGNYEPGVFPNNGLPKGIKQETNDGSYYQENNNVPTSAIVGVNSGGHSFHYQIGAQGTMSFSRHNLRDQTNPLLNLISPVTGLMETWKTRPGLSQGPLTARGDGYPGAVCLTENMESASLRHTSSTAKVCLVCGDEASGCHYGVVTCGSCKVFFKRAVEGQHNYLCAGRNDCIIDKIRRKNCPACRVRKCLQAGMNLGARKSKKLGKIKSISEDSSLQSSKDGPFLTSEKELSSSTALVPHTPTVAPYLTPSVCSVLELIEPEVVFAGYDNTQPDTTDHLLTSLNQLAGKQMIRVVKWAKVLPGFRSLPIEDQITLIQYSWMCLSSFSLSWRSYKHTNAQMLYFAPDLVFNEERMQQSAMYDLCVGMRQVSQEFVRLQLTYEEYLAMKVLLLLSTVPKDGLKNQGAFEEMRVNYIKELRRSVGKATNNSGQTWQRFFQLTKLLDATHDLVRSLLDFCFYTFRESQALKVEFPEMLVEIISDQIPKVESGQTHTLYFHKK
Excerpt: as §1

[3] = molecular target: T5, truncated zebrafish MR (GAL4-DBD-MR-LBD) (Danio rerio, UniProt A6YIH7); design: transcriptional activation of truncated GAL4-DBD-MR-LBD, luciferase reporter, concentration-response
T5 construct: gene nr3c2
T5 sequence (A6YIH7 669-970 limits assumed): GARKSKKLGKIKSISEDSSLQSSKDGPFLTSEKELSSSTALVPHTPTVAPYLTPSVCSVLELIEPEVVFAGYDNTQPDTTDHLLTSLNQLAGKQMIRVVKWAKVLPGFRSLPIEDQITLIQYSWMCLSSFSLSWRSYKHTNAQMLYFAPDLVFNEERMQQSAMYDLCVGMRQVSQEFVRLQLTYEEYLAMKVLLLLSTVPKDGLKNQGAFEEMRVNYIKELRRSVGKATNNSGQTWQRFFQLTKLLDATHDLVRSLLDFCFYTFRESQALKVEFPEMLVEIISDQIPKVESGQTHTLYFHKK
Excerpt: as §2

Row | SMILES | Emax [1] | Emax [2] | Emax (full-length chicken MR) | Emax (full-length zebrafish MR) | Emax [3]
1 | C[C@]12CC[C@H]3[C@@H](CCC4=CC(=O)CC[C@@]43C)[C@@H]1CC[C@@H]2C(=O)CO [11-deoxycorticosterone] | 83% | 81% |  |  | 
2 | CC(=O)[C@@]1(O)CC[C@H]2[C@@H]3CCC4=CC(=O)CC[C@]4(C)[C@H]3CC[C@@]21C [17OH-Prog] | 25% | 26% | 15% | 44% | 
3 | CC(=O)[C@H]1CC[C@H]2[C@@H]3CCC4=CC(=O)CC[C@@H]4[C@H]3CC[C@]12C [19norProg] | 84% | 98% | 68% | 83% | 122%
4 | C[C@]12C[C@H](O)[C@H]3[C@@H](CCC4=CC(=O)CC[C@@]43C)[C@@H]1CC[C@@H]2C(=O)CO [B, corticosterone] | 101% | 90% |  |  | 

Continued, in another order:

Row | Emax [1] | Emax [2] | Emax (full-length chicken MR) | Emax (full-length zebrafish MR) | SMILES | Emax [3]
5 | 43% | 40% | 62% | 77% | CC(=O)[C@H]1CC[C@H]2[C@@H]3CCC4=CC(=O)CC[C@]4(C)[C@H]3CC[C@]12C [Prog] | 122%
6 | 83% | 77% |  |  | C[C@]12CCC(=O)C=C1CC[C@@H]1[C@@H]2CC[C@@]2(C)[C@H]1CC[C@]2(O)C(=O)CO [S, 11-deoxycortisol] | 
7 | 45% | 53% | 30% | 54% | CC(=O)S[C@@H]1CC2=CC(=O)CC[C@]2(C)[C@H]2CC[C@@]3(C)[C@@H](CC[C@@]34CCC(=O)O4)[C@H]12 [Spiron] | 
8 | 114% | 79% |  |  | C[C@]12CCC(=O)C=C1CC[C@@H]1[C@@H]2[C@@H](O)C[C@@]2(C)[C@H]1CC[C@]2(O)C(=O)CO [cortisol] | 
